From patent publication US6602515B2, “Photo stable organic sunscreen compounds with antioxidant properties and compositions obtained therefrom” (EM Industries, priority 2001, dated 2003)

How the values were obtained:
[1] = physchem; type: physicochemical
Method: Individual solutions of selected sunscreen compounds (2/1, 2/4, 2/5, 2/7 and 2/8) with Avobenzone were as follows. Each sunscreen compound was dissolved in 70% ethanol/30% H2O solution containing roughly an equal molar amount of Avobenzone. A similar solution containing Di-2-ethylhexyl-2,6-napthalene dicarboxylic acid (DENDA) and Avobenzone was also prepared. Each solution was then illuminated in the solar simulator as configured above for the photostability tests and aliquots of each solution were removed at 30-minute time intervals. These aliquots were injected into an HPLC and the loss of Avobenzone was followed with illumination time. The high performance liquid chromatograph (HPLC) used for all experiments reported therein incorporated a Spectra-Physics model P-200 pump with an Applied Biosystems model 785A UV-Visible detector with a Rheodyne manual injector incorporating a […] sample loop and a 150×4.6 mm reversed-phase C18 column (Alltech). All analyses were carried out under isocratic elution conditions using CH3OH/H2O mixtures for the mobile phase at a flow rate of […] per minute. It was necessary to employ HPLC separation of Avobenzone from each of the sunscreen compounds to quantify Avobenzone due to the absorption spectra overlap with some of these compounds.

[2] = Absorbance and molar absorptivity of sunscreen compounds; type: physicochemical; details: for ελMax / λMax: 70% ethanol/30% H2O solution; for molar absorption compared to Avobenzone: 70% ethanol and 30% isopropyl myristate
Method: Each exploratory sunscreen compound was dissolved in 70% ethanol/30% isopropyl myristate and/or 70% ethanol/30% water and the UV visible absorption spectrum measured with a Shimadza UV 2101-double beam spectrophotometer using the solvent as reference. A similar solution of Octocrylene was prepared and the UV-visible absorption spectrum measured. Each solution was then illuminated for two hours in the solar simulator. After illumination, the absorption spectrum was again measured each solution. […]

[3] = Photostability, 2 hours illumination in Xe arc solar simulator, UV-visible absorption spectrum; type: physicochemical; details: for photostability compared to Octocrylene: 2 hours of illumination in the solar simulator
Description: The solar simulator used for illumination of the samples in the experiments was constructed incorporating a 1 kw Xe arc lamp, optical bench and sample illumination chamber. The lamp output was filtered through a water filter with a course window to remove most of the infrared radiation and optical filters to remove wavelengths below 290 nm. The output of the illumination system was focused onto the face of a 1 cm quartz Cuvette that was thermally equilibrated with a constant temperature water bath at 25 ° C. A magnetic stir was mounted under the Cuvette so that the samples could be stirred while being illuminated. An electric shutter was controlled by a dark room timer to provide precise control of illumination times. The solar simulator was constructed to provide illumination that closely matches terrestrial sunlight. The solar simulator delivered roughly 250 J/cm^2 over a 2-hour period of illumination in a 290-490 nm range. This irradiance was determined using two nitrobenzaldehyde chemical actinometry. The irradiance is much higher than other solar simulator systems which typically illuminate a large area in order to illuminate many samples simultaneously rather than being focused down to a very small area. Each exploratory sunscreen compound was dissolved in 70% ethanol/30% isopropyl myristate and/or 70% ethanol/30% water and the UV visible absorption spectrum measured with a Shimadza UV 2101-double beam spectrophotometer using the solvent as reference. A similar solution of Octocrylene was prepared and the UV-visible absorption spectrum measured. Each solution was then illuminated for two hours in the solar simulator. After illumination, the absorption spectrum was again measured each solution.

[4] = DPPH test method (antioxidant property, % reducing activity); type: biochemical; details: 20 minutes, 517 nm
Method: A DPPH concentrate (2.5×) of 25 mg of 1,1-Diphenyl-2-Picyrl-Hydrazyl ACS# 1898-66-4 (Sigma #D-9132, lot 99H3601) dissolved in 250 mL ethanol (USP), is prepared fresh on the measurement date. A DPPH working solution is then prepared by diluting 100 mL of this concentrate to a final volume of 250 mL ([…]). A blank 13×100 mm borosilicate glass screw top tube of ethanol (USP) is used to zero the spectrometer (Milton Roy, Spectronic 20+) at 517 nm and a control tube of DPPH working solution is measured under identical conditions, and taken as 0% activity. Aliquots of the 0.25% & 0.5% (RT & 45° C.) test solution are added to tubes followed by the rapid addition of 4 mL DPPH working solution then rapidly capped and mixed. After 20 minutes, the absorbance of each sample is read at 517 nm.
The percent reducing activity (% RA) is calculated using the following equation:
% Reduction Activity=100 A(0)-A(20)/A(0)
Where A(0) is the absorbance value of the DPPH working solution at 517 nm zeroed against an ethanol blank and A(20) is the absorbance at 517 nm, 20 minutes after combining the antioxidant with the DPPH working solution.
The concentration of antioxidant (mg/ml) in the final assay mixture is calculated based on the dilution of respective aliquots of each compound in the final assay volume and % RA tabulated and plotted as percent activity at each concentration in the dilution series.

[5] = after 2 hours of illumination in the solar simulator
[6] = 2.500 mg/ml in final assay mixture
[7] = 0.028 mg/ml in final assay mixture
[8] = 0.056 mg/ml in final assay mixture
[9] = 0.139 mg/ml in final assay mixture
[10] = 0.278 mg/ml in final assay mixture

Row | SMILES | stabilization of Avobenzone, compared with DENDA [1] | ελMax [2] [M⁻¹ cm⁻¹] | λMax [2] [nm] | photostability compared to Octocrylene [3] | photostability (retention of absorptivity), in words [3, 5] | % Reducing Activity [4, 6] [%] | % Reducing Activity [4, 7] [%] | % Reducing Activity [4, 8] [%] | % Reducing Activity [4, 9] [%] | % Reducing Activity [4, 10] [%] | molar absorption compared to Avobenzone [2] | stability compared to Avobenzone [3] | loss of absorbance [3, 5] [%] | absorption after illumination relative to the initial value ([3]; 2 hour period of illumination, not precise) | half-life [1] [h]
1 | CCOC(=O)C(=Cc1cc(OC)c(OC)c(OC)c1)C(=O)OCC [2/1, diethyl-3,4,5-trimethoxy benzylidene malonate, reference compound] | appear to stabilize Avobenzone as effectively as DENDA | 20000 | 313 | comparable photo stabilities to Octocrylene | retain most of their absorptivity | 0.0 | – | – | – | – | – | – | – | – | –
2 | CCOC(=O)C(C#N)=Cc1cc(OC)c(OC)c(OC)c1 [2/2, ethyl-alpha-cyano-3,4,5-trimethoxy cinnamate, reference compound] | – | – | – | – | – | 3 | – | – | – | – | – | – | – | – | –
3 | CCOC(=O)C(C#N)=Cc1cc(OC)c(O)c(OC)c1 [2/3, ethyl-alpha-cyano-3,5-dimethoxy-4-hydroxy cinnamate] | – | – | – | – | – | 25.40 | 5.2 | 8.4 | 11.3 | 15.5 | – | – | – | – | –
4 | CCOC(=O)C(=Cc1cc(OC)c(O)c(OC)c1)C(=O)OCC [2/4, diethyl-3,5-dimethoxy-4-hydroxy benzylidene malonate] | appear to stabilize Avobenzone as effectively as DENDA | 12000 | 338 | comparable photo stabilities to Octocrylene | retain most of their absorptivity | 71.70 | 5.2 | 12.8 | 29.51 | 33.4 | lower molar absorption than Avobenzone | appear to be more stable than Avobenzone | – | – | –
5 | CCOC(=O)C(=Cc1cc(OC)c(O)c(OC)c1)C(C)=O [2/5, ethyl-alpha-acetyl-3,5-dimethoxy-4-hydroxy cinnamate] | somewhat less effective than DENDA | 19000 | 348 | comparable photo stabilities to Octocrylene | retain most of their absorptivity | – | 20.7 | 31.0 | 47.3 | 59.9 | lower molar absorption than Avobenzone | appear to be more stable than Avobenzone | – | – | –
6 | CCOC(=O)C(C)=Cc1cc(OC)c(O)c(OC)c1 [2/7, ethyl-alpha-methyl-3,5-dimethoxy-4-hydroxy cinnamate] | – | – | 314 | – | – | – | 46.1 | 61.2 | 77.3 | 85.0 | – | – | 72 | – | –
7 | CCCCC(CC)COC(=O)C(=Cc1cc(OC)c(O)c(OC)c1)C(=O)OCC(CC)CCCC (stereo not shown) [2/8, di(2-ethyl-hexyl)-3,5-dimethoxy-4-hydroxy benzylidene malonate] | appear to stabilize Avobenzone as effectively as DENDA | 16000 | 340 | – | – | – | 8.5 | 13.0 | 23.2 | 33.7 | – | – | – | approximately 82% | –
8 | COc1cc(C=C(C(=O)OCCC(C)C)C(=O)OCCC(C)C)cc(OC)c1O [2/10, di-iso-amyl-3,5-dimethoxy-4-hydroxy benzylidene malonate] | – | – | – | – | – | – | 10.2 | 14.6 | 22.3 | 30.1 | – | – | – | – | –
9 | COc1ccc(C(=O)CC(=O)c2ccc(C(C)(C)C)cc2)cc1 [Avobenzone, reference compound] | – | 25000 | 360 | – | – | – | – | – | – | – | – | – | – | – | ~3
10 | CCCCC(CC)COC(=O)c1ccc2cc(C(=O)OCC(CC)CCCC)ccc2c1 (stereo not shown) [DENDA, Di-2-ethylhexyl-2,6-napthalene dicarboxylic acid, reference compound] | Initially the loss of Avobenzone was quite rapid but then seemed to become stable | – | – | – | – | – | – | – | – | – | – | – | – | – | –
11 | CCCCC(CC)COC(=O)C(C#N)=C(c1ccccc1)c1ccccc1 (stereo not shown) [Octocrylene, reference compound] | – | – | – | – | no loss in absorptivity | – | – | – | – | – | – | – | – | – | –
